In PMC10938783, “A novel pan-PI3K inhibitor KTC1101 synergizes with anti-PD-1 therapy by targeting tumor suppression and immune activation” (Molecular Cancer, 2024):

Columns and labels:
[1] = system: phosphorylation of AKT and mTOR; experiment: Western blot of PI3K pathway; format: cell-based, human; conditions: 48 h
Method: Western blots were performed as previously described. Cells were seeded into six-well plates and treated with DMSO or a series of concentrations of KTC1101. Cells were lysed, and total proteins were harvested. Equal amounts of protein (20–50 μg) were separated using 8% or 12% SDS-PAGE and transferred to polyvinylidene difluoride membranes (Bio-Rad). After blocking in 5% nonfat dry milk, the membranes were incubated with appropriate primary antibodies overnight at 4 °C, washed, and incubated with respective HRP-conjugated secondary antibodies for 1 h at room temperature. The signals were detected using a ChemiDoc XRS + System (Bio-Rad) after exposure to chemiluminescence reagents (Bio-Rad), and β-actin served as the loading control.

[2] = system: HSC2 cells; experiment: Cell proliferation MTT assay; format: cell-based; conditions: Homo sapiens, HSC-2; HSC2, 48-h treatment; read-out: IC50 cell viability
Method: (§1) Cell proliferation was measured by MTT assay as previously described. The cells were seeded in a volume of 200 μL/well in 96-well plates. The next day, cells were treated with DMSO or a series of concentrations of KTC1101. After a 48-h incubation period, 20 μL of MTT (5 mg/mL) was added to each well. After further incubation for 4 h at 37 °C, the absorbance at 490 nm was measured using an iMark microplate reader (BIO-RAD, Hercules, CA, USA).

[3] = system: CCL5 and CXCL10; experiment: qRT-PCR and ELISA of chemokines in B16 cells; format: cell-based, mouse; conditions: 48 h
Method: qRT-PCR was performed as previously described. RNA was isolated using Trizol and used to synthesize complementary DNA (cDNA) using a cDNA Synthesis Kit (GenStar), and RT-PCR was performed with aliquots of cDNA samples mixed with SYBR Green MasterMix (Applied Biosystems). Reactions were performed in triplicate.
We examined the secreted cytokines from B16 cells under both in vitro and in vivo conditions. For in vitro-cultured B16 cells, the cells were seeded into six-well plates and treated with either DMSO or a range of KTC1101 concentrations. After 48 h, the total cell count was determined, and the cell culture supernatant was collected for further analysis. For in vivo tumor tissues, the harvested tumor tissues were homogenized. Post-centrifugation, the supernatant was collected and used for protein quantification utilizing a BCA kit. The concentrations of murine CCL5 and CXCL10 in these supernatants were then quantified using specific ELISA kits, in accordance with the manufacturer's instructions.

[4] = system: PC3 tumors; experiment: PC3 xenograft in BALB/c nude mice; format: in vivo, mouse
Method: BALB/c nude, NSG, and C57BL/6J mice were obtained from Tianjin Medical University. The housing temperature was controlled, ranging from 20.5–24 °C, and humidity was monitored but not controlled ranging from 30–70%. The 12-h daily light cycle was from 06:00 to 18:00. To generate a murine subcutaneous tumor model, PC3 and HSC2 cells were subcutaneously injected into the right lateral flank of 4- to 5-week-old male BALB/c nude mice. TMD8, CAL33, and S24 cells were subcutaneously injected into the right lateral flank of 4- to 5-week-old male NSG mice. When tumors reached a volume of 300–500 mm^3, they were excised, diced into 2 mm × 2 mm × 2 mm pieces, and implanted into the right flanks of BALB/c nude or NSG mice. Tumors were allowed to grow to a volume of 100 mm^3, and then the animals were randomly divided into several groups. Each group of five mice was treated with either vehicle or KTC1101 (25, 50, or 100 mg/kg, PO). Tumor size was measured every 3 d or 4 d until the endpoint. The tumor volume was calculated using the following formula: length × width × height/2. At the end of the experimental period, mice were euthanized by overdosing on pentobarbital sodium, and the tumors were removed. Tumor tissue was formalin-fixed and paraffin-embedded for histological analysis.

[5] = Drug concentration measurement in tumors; format: in vivo, mouse; conditions: B16 tumors, continuous dosing
Method: To evaluate the intratumoral concentration of KTC1101, the B16 murine cancer model was established by subcutaneously implanting 2.5 × 10^5 B16 cells into the right lateral flank of C57BL/6 mice. The mouse model was utilized for experiments when tumor volumes reached approximately 100 mm^3. The B16 tumor-bearing C57BL/6 mice were divided into groups, with each group comprising three mice. They were treated with KTC1101 at doses of either 50 or 100 mg/kg (PO). The mice were sacrificed, and tumors were collected on days 1, 5, and 7 post-treatment. Approximately 50 mg of each tumor was homogenized in 1 mL of methanol, followed by centrifugation at 12,000 rpm at 4 °C for 10 min. The concentration of KTC1101 in the supernatant was quantified using LC–MS.

[6] = system: PC3, TMD8, HSC2, HSC4, CAL33 cells; experiment: Cell proliferation MTT assay, five tumor cell lines; format: cell-based; conditions: Homo sapiens; cell viability assay; read-out: IC50 range over PC3, TMD8, HSC2, HSC4, CAL33 cells
Method: as §1

[7] = system: B16 tumor tissue gene expression; experiment: RNA-Seq (DEGs, GSEA, GSVA, CIBERSORT) of B16 tumors after KTC1101; format: in vivo, mouse; conditions: 100 mg/kg for 3 days
Description: Total RNA was isolated using TRIzol reagent.
Cell-type Identification by Estimating Relative Subsets of RNA Transcripts (CIBERSORT) was used to perform a deconvolution analysis of the gene expression matrix based on the principle of linear […]. The CIBERSORT algorithm, with a reference to 511 mouse gene signatures, categorized immune cell populations into seven groups and calculated composition scores: B cells including memory, naive, and plasma cells; CD8^+ T cells including memory, naive, and activated cells; CD4^+ T cells including memory, naive, follicular, Th1, Th2, and Th17 cells; DCs including activated and immature cells; the rest being mast cells, Tregs, and monocytes.

COc1cc(N)cc2c1nc(C(F)F)n2-c1nc(N2CCCOCC2)nc(N2CCOCC2)n1 [KTC1101, 2-(difluoromethyl)-4-methoxy-1-(4-morpholino-6-(1,4-oxazepan-4-yl)-1,3,5-triazin-2-yl)-1H-benzo[d]imidazol-6-amine]
phosphorylation of AKT and mTOR [1]: reduced phosphorylation | IC50 [2]: 117 nM | expression levels of CCL5 and CXCL10 [3]: significantly stimulated | tumor growth ([4]; 25 mg/kg PO): significant delay in tumor growth | efficacy in inhibiting PC3 tumors ([4]; 50 mg/kg PO): equivalent to 200 mg/kg ZSTK474 | tumor growth ([4]; 100 mg/kg PO): Tumor growth arrest | intratumoral drug concentration [5]: accumulation of the drug in continuous dosing | IC50 [6]: 20 to 130 nM | immune-related pathways (GSEA, GSVA) [7]: prominently upregulated
